Earlier results as cited in patent publication US20080131532A1, “Fast asleep” (priority 2006, published 2008).

Legend:
rat brain = conditions: following administration
[1] = system: subjects with Alzheimer's disease; conditions: eight weeks, 50 subjects
[2] = in vivo
[3] = system: patients with multi-infarct dementia or senile dementia and senile and pre-senile simple memory disorders
[4] = system: children with neurologic disorders; conditions: 5 milligrams at bedtime, six children
[5] = system: long-term users of benzodiazepine; conditions: 2 milligrams daily controlled release
jet lag = conditions: two doses, different administration times
healthy male volunteers = conditions: 10-mg dose for 28 days, 1 hour before sleep time
healthy elderly subjects = conditions: 1 mg nightly for 4 weeks
[6] = system: children with idiopathic chronic sleep-onset insomnia; conditions: 5 mg at 7 pm, 4-week treatment
patients with tinnitus = conditions: 3 mg per day for 4 weeks; weeks 0 to 4 and weeks 0 to 8
[7] = system: schizophrenic outpatients with initial insomnia; conditions: 3-12 mg/night, 15 days
women with asthma = conditions: 3 mg for 4 weeks, between groups
women = conditions: 100 mg pill at 08.00 h
[8] = system: travelers crossing five or more time zones
[9] = system: primary or secondary sleep disorders; conditions: meta-analysis
[10] = sleep-disturbed rats, 09:00 to 15:00

**Q.** Which “effect on changes in delta activity induced by kava-kava extract and flunitrazepam” value (sleep-disturbed rats; sleep-disturbed rats) does the source give for CCOC(=O)c1ncn2c1CN(C)C(=O)c1cc(F)ccc1-2 [Flumazenil, flumazenil] here?
**A.** no significant effect

**Q.** What does the source list for C/C=C1\[C@H]2C=C(C)C[C@]1(N)c1ccc(=O)[nH]c1C2 [Huperzine A]?
**A.** acetylcholine levels in the rat brain (rat brain): increase; dopamine levels (rat brain): increases; norepinephrine levels (rat brain): increases; patients with significant improvement in memory, cognitive and behavioral functions [1]: 58%; time to reach peak blood level [2]: approximately 80 minutes; Dizziness ([3]; in vivo): experienced by a few; Wechsler Memory Scale ([3]; injectable form versus saline control): significant positive effects; duration of AChE inhibitory action (compared with tacrine, donepezil, and rivastigmine): longer duration; penetration through the blood-brain barrier (in vivo): better penetration; toxicity in animal and clinical safety tests (in vivo): no unexpected toxicity; oral bioavailability (in vivo, po): higher; memory deficits (phase IV clinical trials in China, elderly with benign senescent forgetfulness, Alzheimer disease, vascular dementia): significantly improved

**Q.** For CC1=C[C@H]2Cc3[nH]c(=O)ccc3[C@]3(C1)NCCC[C@H]23 [Huperzine B], which “acetylcholinesterase inhibition (in words)” value (acetylcholinesterase) is on record?
**A.** much less potent

**Q.** Which “Quality and quantity of sleep” value [4] does the source give for COc1ccc2[nH]cc(CCNC(C)=O)c2c1 [Melatonin, N-[2-(5-Methoxy-1H-indol-3-yl)ethyl]acetamide] here?
**A.** quickly increased in five of the six children

**Q.** And the “Sleep quality scores versus placebo” value [5]?
**A.** significantly higher

**Q.** And the “subjects who completely discontinued benzodiazepine use” value ([5]; period one, placebo four of 16)?
**A.** 14 of 18

**Q.** And the “effect on jet lag versus placebo” value (jet lag)?
**A.** no beneficial physiological effect

**Q.** And the “sleep latency, criterion 10 minutes of uninterrupted sleep” value (healthy male volunteers)?
**A.** significant reduction

**Q.** And the “California Verbal Learning Test-interference subtest scores” value (healthy elderly subjects)?
**A.** improved

**Q.** What about the reported morning restedness (healthy elderly subjects) of the same molecule?
**A.** improved

**Q.** What about the “sleep latency after nocturnal awakening” value (healthy elderly subjects) of the same molecule?
**A.** improved

**Q.** And the Lights-off time [6]?
**A.** did not change

**Q.** What about the “advance of sleep offset” value [6] of the same molecule?
**A.** 9 min

**Q.** What about the “advance of sleep onset” value [6] of the same molecule?
**A.** 57 min

**Q.** What about the “decrease of sleep latency” value [6] of the same molecule?
**A.** 17 min

**Q.** And the “total scores of the RAND-GHRI and FS-II compared to placebo” value [6]?
**A.** improved significantly more

**Q.** What about the total sleep time [6] of the same molecule?
**A.** did not change

**Q.** And the “advance of melatonin onset” value ([6]; dim light melatonin onset in saliva)?
**A.** 82 min

**Q.** And the “standardized response mean for the RAND-GHRI” value ([6]; placebo 0.07)?
**A.** 0.69

**Q.** And the “standardized response mean for the FS-II” value ([6]; placebo 0.64)?
**A.** 1.61

**Q.** What about the “mean PSQI” value (patients with tinnitus) of the same molecule?
**A.** significantly decreased

**Q.** And the “mean THI score” value (patients with tinnitus)?
**A.** decreased significantly

**Q.** What about the daytime functioning [7] of the same molecule?
**A.** improved

**Q.** What about the duration of sleep [7] of the same molecule?
**A.** increased

**Q.** And the freshness on awakening [7]?
**A.** heightened

**Q.** And the mood [7]?
**A.** improved

**Q.** What about the “number of nighttime awakenings” value [7] of the same molecule?
**A.** reduced

**Q.** What about the “sleep-onset latency (subjective)” value [7] of the same molecule?
**A.** significantly reduced

**Q.** And the “asthma symptoms, use of relief medication and daily peak expiratory flow rate” value (women with asthma)?
**A.** No significant difference

**Q.** What about the “daytime cortisol levels in postmenopausal women (PMW)” value (women) of the same molecule?
**A.** marked increase

**Q.** What about the “serum cortisol levels in young women (EFW)” value (women) of the same molecule?
**A.** did not modify

**Q.** What about the “effect on jet lag” value [8] of the same molecule?
**A.** reduce or prevent jet lag

**Q.** What about the “efficacy in primary or secondary sleep disorders” value [9] of the same molecule?
**A.** not effective

**Q.** What does the source list for CN1C(=O)CN=C(c2ccccc2F)c2cc([N+](=O)[O-])ccc21 [flunitrazepam]?
**A.** antagonism of the effects by flumazenil (sleep-disturbed rats; benzodiazepine receptor antagonist flumazenil): antagonized; delta activity during non-REM sleep (sleep-disturbed rats; sleep-disturbed rats): significant decrease; total non-REM sleep time (sleep-disturbed rats; [10]): increase; total waking time (sleep-disturbed rats; [10]): decrease; sleep latency (sleep-disturbed rats; sleep-disturbed rats, kava-kava extract 300 mg/kg): significant shortening
